Drawing on patent US3950418A, “Vitamin A acid amides” (Hoffmann-La Roche Inc., priority 1970, dated 1976), this text covers LD50, LD10 and LD90 for 7 molecules.

Format in all cases: in vivo
The nature of data set [1]: Acute toxicity, testing in the mouse. The note with it: in vivo, in rape oil; for LD50 at 240 h: 10 days. The text has this: (§1) Toxicity tests carried out in mice and rats gave the following results for acute toxicity:
(§2) 1. Vitamin A acid ethyl amide in rape oil (per os and intraperitoneal administration)
(§3) 2. Vitamin A acid ethanol amide in rape oil (intraperitoneal administration)
(§4) 3. Vitamin A acid diethyl amide, vitamin A acid n-butyl amide, vitamin A acid phenyl amide, vitamin A acid isopropyl amide, or vitamin A acid methyl amide in rape oil (intraperitoneal administration)

Another data set concerns mouse. Nature of the data set: Acute toxicity, testing in the mouse. The note with it: in rape oil.
Description: as §1, §2, §3, §4

For the next data set, the system named is rat. Nature of the data set: Acute toxicity, testing in the rat. To be noted: in rape oil, per os and intraperitoneal administration.
Description: as §1
(§5) Vitamin A acid ethyl amide in rape oil (per os and intraperitoneal administration)

Data set [2] can be described thus: Acute toxicity, testing in the rat. To be noted: in vivo, in rape oil, per os and intraperitoneal administration.
Description: as §1, §5

Setting [3] is: ip, intraperitoneal administration.
[4] abbreviates: intraperitoneal administration, 24 hrs.
Where [5] appears, read: intraperitoneal administration, 10 days.
The mark [6] stands for this setting: per os and intraperitoneal administration.
Where [7] appears, read: per os and intraperitoneal administration, 20 days.
Where [8] appears, read: per os and intraperitoneal administration, 24 hrs.
Setting [9] is: per os and intraperitoneal administration, 10 days.

Each structure is given as a SMILES string. Some results are limits rather than exact numbers.

As for `CC1=C(/C=C/C(C)=C/C=C/C(C)=C/C(=O)NCCO)C(C)(C)CCC1` [Vitamin A acid ethanol amide, vitamin A acid ethanol amide], in data set [1] (setting [3]), the LD50 at 24 h was above 4000 mg/kg and the LD50 at 240 h came to 1000 mg/kg. In the data set on mouse (setting [4]), this molecule displayed an LD10 above 4000 mg/kg and an LD90 above 4000 mg/kg. In addition, in the data set on mouse (setting [5]), the LD10 was found to be 710 mg/kg and the LD90 stood at 1400 mg/kg.

In data set [1] (setting [3]), `CC1=C(/C=C/C(C)=C/C=C/C(C)=C/C(=O)NC(C)C)C(C)(C)CCC1` [vitamin A acid isopropyl amide] displayed an LD50 at 24 h above 4000 mg/kg and an LD50 at 240 h above 4000 mg/kg. In the data set on mouse (setting [4]), this molecule showed an LD10 above 4000 mg/kg and an LD90 above 4000 mg/kg. In addition, in the data set on mouse (setting [5]), the LD10 is above 4000 mg/kg and the LD90 is recorded as above 4000 mg/kg.

For `CCN(CC)C(=O)/C=C(C)/C=C/C=C(C)/C=C/C1=C(C)CCCC1(C)C` [Vitamin A acid diethyl amide, vitamin A acid diethyl amide], in data set [1] (setting [3]), the 50% lethal dose (LD50) at 24 h was above 4000 mg/kg and the LD50 at 240 h is above 4000 mg/kg. In the data set on mouse (setting [4]), this molecule yielded an LD10 above 4000 mg/kg and an LD90 above 4000 mg/kg. In the data set on mouse (setting [5]), the LD10 is on record as above 4000 mg/kg and the LD90 is above 4000 mg/kg.

On to `CCNC(=O)/C=C(C)/C=C/C=C(C)/C=C/C1=C(C)CCCC1(C)C` [Vitamin A acid ethyl amide, vitamin A acid monoethyl amide], for which the LD10 with rat (24 hrs.), in the data set with rat (10 days), with mouse (setting [8]), with mouse (setting [9]) and in the data set on mouse (setting [7]) was above 4000 mg/kg in each case. The LD90 in the data set with rat (24 hrs.), in the data set on rat (10 days), in the data set with mouse (setting [8]), in the data set with mouse (setting [9]) and in the data set on mouse (setting [7]) was above 4000 mg/kg in each case. In addition, the 50% lethal dose (LD50) at 24 h in data set [2] (24 hrs.) and in data set [1] (setting [6]) was above 4000 mg/kg in each case. In addition, the LD50 at 240 h in data set [2] (10 days) and in data set [1] (setting [6]) was above 4000 mg/kg throughout. Further, in data set [1] (setting [7]), the LD50 at 480 h is above 4000 mg/kg.

In data set [1] (setting [3]), `CCCCNC(=O)/C=C(C)/C=C/C=C(C)/C=C/C1=C(C)CCCC1(C)C` [vitamin A acid n-butyl amide] returned an LD50 at 24 h above 4000 mg/kg and an LD50 at 240 h above 4000 mg/kg. Moreover, in the data set with mouse (setting [4]), the LD10 is above 4000 mg/kg and the LD90 was above 4000 mg/kg. In the data set with mouse (setting [5]), this molecule had an LD10 above 4000 mg/kg and an LD90 above 4000 mg/kg.

In data set [1] (setting [3]), `CC1=C(/C=C/C(C)=C/C=C/C(C)=C/C(=O)Nc2ccccc2)C(C)(C)CCC1` [vitamin A acid phenyl amide] returned an LD50 at 24 h above 4000 mg/kg and a 50% lethal dose (LD50) at 240 h above 4000 mg/kg. Moreover, in the data set on mouse (setting [4]), the LD10 is listed as above 4000 mg/kg and the LD90 is recorded as above 4000 mg/kg. In the data set with mouse (setting [5]), the LD10 is given as above 4000 mg/kg and the LD90 is given as above 4000 mg/kg.

In data set [1] (setting [3]), `CNC(=O)/C=C(C)/C=C/C=C(C)/C=C/C1=C(C)CCCC1(C)C` [vitamin A acid methyl amide] gave an LD50 at 24 h above 4000 mg/kg and a median lethal dose (LD50) at 240 h above 4000 mg/kg. Further, in the data set with mouse (setting [4]), the LD10 was above 4000 mg/kg and the LD90 is reported as above 4000 mg/kg. For the same molecule, in the data set with mouse (setting [5]), the LD10 is listed as above 4000 mg/kg and the LD90 was above 4000 mg/kg.
